Source: patent US10894798B2, “Substituted dihydropyrrolopyrazole derivative” (UBE INDUSTRIES, LTD., priority 2015, dated 2021)

What was measured:
Assay type in all cases: cell-based
[1] = tested on: medulloblastoma cell line Daoy; assay: Various human cancer cell growth inhibition test: Daoy; details: ATPlite, read-out: GI50 value (concentration necessary for inhibiting 50% of cell growth)
Excerpt: (§1) A breast cancer cell line BT-549 (obtained from American Type Culture Collection (ATCC)), a uterus cancer cell line C-33A (obtained from ATCC), an ovary cancer cell line PA-1 (obtained from ATCC), a large-cell lung cancer cell line NCI-H460 (obtained from ATCC), a small-cell lung cancer cell line NCI-H82 (obtained from ATCC), a kidney cancer cell line ACHN (obtained from ATCC), a pancreatic cancer cell line BxPC-3 (obtained from ATCC), a malignant melanoma cell line A375 (obtained from ATCC), a throat cancer cell line FaDu (obtained from ATCC), a medulloblastoma cell line Daoy (obtained from ATCC), a cutaneous epithelioid sarcoma cell line VA-ES-BJ (obtained from ATCC), a rhabdomyosarcoma cell line A-204 (obtained from ATCC), a prostate cancer cell line DU145 (obtained from ATCC), a bladder cancer cell line T24 (obtained from ATCC), a lymphoma cell line SR (obtained from ATCC), a neuroblastoma cell line SH-SY5Y (obtained from DS Pharma Biomedical Co., Ltd.), a liver cancer cell line HepG2 (obtained from DS Pharma Biomedical Co., Ltd.), a stomach cancer cell line HGC-27 (obtained from DS Pharma Biomedical Co., Ltd.), and a multiple myeloma cell line NCI-H929 (obtained from DS Pharma Biomedical Co., Ltd.) were used as human cancer cell lines.
(§2) Each cell line was cultured in a cell culture medium recommended by ATCC or DS Pharma Biomedical Co., Ltd. and inoculated at 0.3 to 5.0×10^3 cells/well to a 96-well plate. The cells were cultured overnight in a carbon dioxide incubator of 37° C. containing 5% carbon dioxide. The medium was replaced with a fresh medium on the next day, then replaced with a mixed solution of a DMSO solution of a test compound with varying concentrations and a culture medium (final DMSO concentration: 0.1%), and left standing in a carbon dioxide incubator (day 0). IV-361, IV-379, IV-3, IV-215, IV-299, IV-669, IV-1049, and palbociclib (for comparison) were used as test compounds. For a control group, DMSO was added instead of the DMSO solution of the test compound to a cell culture medium (final DMSO concentration: 0.1%).
(§3) After culture for a predetermined period, the ATP activity of BT-549, C-33A, PA-1, NCI-H460, NCI-H82, ACHN, BxPC-3, A375, FaDu, Daoy, VA-ES-BJ, A-204, DU145, T24, and SR was measured by using ATPlite (manufactured by PerkinElmer, Inc.). The ATP activity of SH-SY5Y, HepG2, HGC-27, and NCI-H929 was measured by using CellTiter-Glo (manufactured by Promega Corp.).
(§4) The rate of inhibition of cell growth (%) was calculated according to the expression given below. Specifically, in the case where the difference between the ATP activity before culture (day 0) and the ATP activity after culture in the test compound-administered group is the same as the difference between the ATP activity before culture (day 0) and the ATP activity after culture in the control group, the rate of inhibition of cell growth is 0%. Rate of inhibition of cell growth=(1−((ATP activity of the test compound-administered group after culture)−(ATP activity of the test compound-administered group on day 0))/((ATP activity of the control group after culture)−(ATP activity of the control group on day 0)))×100
(§5) The concentration of the test compound necessary for inhibiting 50% of cell growth (GI50 value) was calculated by using EXSUS (version 8.1.0, manufactured by CAC Exicare Corp.).

[2] = tested on: uterus cancer cell line C-33A; assay: Various human cancer cell growth inhibition test: C-33A; details: ATPlite, read-out: GI50 value (concentration necessary for inhibiting 50% of cell growth)
Excerpt: as §1, §2, §3, §4, §5

[3] = tested on: kidney cancer cell line ACHN; assay: Various human cancer cell growth inhibition test: ACHN; details: ATPlite, read-out: GI50 value (concentration necessary for inhibiting 50% of cell growth)
Excerpt: as §1, §2, §3, §4, §5

[4] = tested on: IL-2 production; assay: Human PBMC CD3/CD28-induced IL-2 production inhibition test; details: 48 h; human PBMC, CD3/CD28 stimulation, culture for 2 days, ELISA; read-out: IC50 value, IL-2 production inhibition
Description: PBMC (peripheral blood mononuclear cell) was separated and collected by using Ficoll-Paque (manufactured by GE Healthcare Japan Corp.) from blood collected from a healthy human adult in the presence of heparin. A RPMI1640 medium containing 10% FBS, 1% penicillin/streptomycin/amphotericin B, essential amino acids, and pyruvic acid and containing a test compound dissolved in DMSO and 2 μg/mL CD28 was added at 100 μL/well to T cell Activation Plate Anti-Human CD3 96-well plate (manufactured by Becton, Dickinson and Company), and subsequently, a PBMC suspension prepared such that the number of cells was 2×10^6 cells/mL was added thereto at 100 μL/well (final DMSO concentration: 0.1%). A RPMI1640 medium containing 10% FBS and containing 0.1% DMSO and 2 μg/mL CD28 was similarly added to wells not supplemented with the test compound. After culture for 2 days in a carbon dioxide incubator, the culture supernatant was collected. The collected culture supernatant was stored at −20° C. until IL-2 content measurement.
In the measurement of an L-2 content in the culture supernatant, a sandwich ELISA kit (Quantikine Human IL-2, manufactured by R&D Systems, Inc.) was used. The L-2 content of each sample was calculated from the calibration curve of Standard IL-2 included in the kit. […] A test compound concentration necessary for inhibiting 50% of L-2 production (IC50 value) was calculated from the concentration of the added test compound and the rate of inhibition of IL-2 production by the test compound by using EXSUS (version 8.1.0, manufactured by CAC Exicare Corp.).

[5] = tested on: pancreatic cancer cell line BxPC-3; assay: Various human cancer cell growth inhibition test: BxPC-3; details: ATPlite, read-out: GI50 value (concentration necessary for inhibiting 50% of cell growth)
Excerpt: as §1, §2, §3, §4, §5

[6] = tested on: small-cell lung cancer cell line NCI-H82; assay: Various human cancer cell growth inhibition test: NCI-H82; details: ATPlite, read-out: GI50 value (concentration necessary for inhibiting 50% of cell growth)
Excerpt: as §1, §2, §3, §4, §5

[7] = tested on: throat cancer cell line FaDu; assay: Various human cancer cell growth inhibition test: FaDu; details: ATPlite, read-out: GI50 value (concentration necessary for inhibiting 50% of cell growth)
Excerpt: as §1, §2, §3, §4, §5

[8] = tested on: large-cell lung cancer cell line NCI-H460; assay: Various human cancer cell growth inhibition test: NCI-H460; details: ATPlite, read-out: GI50 value (concentration necessary for inhibiting 50% of cell growth)
Excerpt: as §1, §2, §3, §4, §5

[9] = tested on: breast cancer cell line BT-549; assay: Various human cancer cell growth inhibition test: BT-549; details: ATPlite, read-out: GI50 value (concentration necessary for inhibiting 50% of cell growth)
Excerpt: as §1, §2, §3, §4, §5

[10] = tested on: stomach cancer cell line HGC-27; assay: Various human cancer cell growth inhibition test: HGC-27; details: CellTiter-Glo, read-out: GI50 value (concentration necessary for inhibiting 50% of cell growth)
Excerpt: as §1, §2, §3, §4, §5

[11] = tested on: lymphoma cell line SR; assay: Various human cancer cell growth inhibition test: SR; details: ATPlite, read-out: GI50 value (concentration necessary for inhibiting 50% of cell growth)
Excerpt: as §1, §2, §3, §4, §5

[12] = tested on: bladder cancer cell line T24; assay: Various human cancer cell growth inhibition test: T24; details: ATPlite, read-out: GI50 value (concentration necessary for inhibiting 50% of cell growth)
Excerpt: as §1, §2, §3, §4, §5

[13] = tested on: liver cancer cell line HepG2; assay: Various human cancer cell growth inhibition test: HepG2; details: CellTiter-Glo, read-out: GI50 value (concentration necessary for inhibiting 50% of cell growth)
Excerpt: as §1, §2, §3, §4, §5

[14] = tested on: ovary cancer cell line PA-1; assay: Various human cancer cell growth inhibition test: PA-1; details: ATPlite, read-out: GI50 value (concentration necessary for inhibiting 50% of cell growth)
Excerpt: as §1, §2, §3, §4, §5

[15] = tested on: cutaneous epithelioid sarcoma cell line VA-ES-BJ; assay: Various human cancer cell growth inhibition test: VA-ES-BJ; details: ATPlite, read-out: GI50 value (concentration necessary for inhibiting 50% of cell growth)
Excerpt: as §1, §2, §3, §4, §5

- GI50 [1]: < 0.3 µM
- GI50 [2]: < 0.3 µM
- GI50 [3]: < 0.3 µM
- IC50 [4]: ≤ 0.1 µM
- GI50 [5]: < 0.3 µM
- GI50 [6]: < 0.3 µM
- GI50 [7]: < 0.3 µM
- GI50 [8]: < 0.3 µM
- GI50 [9]: < 0.3 µM
- GI50 [10]: < 0.3 µM
- GI50 [11]: < 0.3 µM
- GI50 [12]: < 0.3 µM
- GI50 [13]: < 0.3 µM
- GI50 [14]: < 0.3 µM
Structure (SMILES): CC1(C)c2[nH]nc(NC(=O)C3([Si](C)(C)C)CCC3)c2CN1C(=O)Nc1c(F)ccc2ccoc12 [IV-1049, N-(6-Fluorobenzofuran-7-yl)-6,6-dimethyl-3-[1-(trimethylsilyl)cyclobutanecarboxamido]-4,6-dihydropyrrolo[3,4-c]pyrazole-5 (1H)-carboxamide]
- GI50 [15]: < 0.3 µM
